Results: article PMC12226733, “Evolution of iGluR ligand specificity, polyamine regulation, and ion selectivity inferred from a placozoan epsilon receptor” (Communications Biology, 2025)
Several values for one entry are separate records, joined by “and”; a condition that tells them apart may be missing. Identical values can stand only once.

How the values were obtained:
GluA2(Q) wt + γ2 = biological target: T1, GluA2(Q) wt + γ2 (Homo sapiens, UniProt P42262); experiment: outside-out patch clamp, block by intracellular spermine, HEK-293T/17 cells; type: biochemical; settings: for Normalized conductance (Gnorm) GluA2 wild type + γ2 / Normalized current (Inorm) GluA2 wild type + γ2: single recordings and AVG;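 on Normalized conductance (Gnorm) GluA2 wild type + γ2: normalized to each receptor's own maximal conductance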
T1 construct: expressed in transfected cells; host or cells: HEK-293T/17
Experimental: (§1) Parallel experiments were carried out in human GluA2 homotetramers bearing equivalent Q/R/N and +4 site mutations to compare the regulation of voltage-dependent polyamine block within the broader context of mammalian receptors. Experimental design remained the same, except for using 10 mM glutamate as the agonist used to evoke membrane currents (Fig. 7a, d, g, and j). […] Their properties were accordingly compared to wildtype GluA2(Q) co-expressed with TARP-γ2.
(§2) HEK-293T/17 cells (ATCC) were maintained in MEM supplemented with GlutaMAX and 10% fetal bovine serum (FBS) at 37 °C and 5% CO2. […] Transient transfections were carried out 48 h post-plating using the calcium phosphate precipitation method. After 6–8 hours, cells were washed twice with PBS and maintained in fresh medium. Cells transfected with mammalian GluA2 cDNA (plasmid vector described above) were returned to an incubator at 37 °C for 24–48 hours and cells transfected with Epsilon GluE1αA were incubated at 28 °C for 48–72 hours. In cells co-transfected with TARP-γ2, 30 μM NBQX was included in the medium to minimize AMPAR/auxiliary-induced cytotoxicity. All constructs were co-transfected with a plasmid encoding enhanced green fluorescent protein (eGFP) to identify transfected cells. Electrophysiology responses were recorded from outside-out patches excised from transfected cells. Recording pipettes were composed of borosilicate glass (3 to 6 megaohm, King Precision Glass) coated with dental wax to reduce electrical noise. All recordings were performed using Axopatch 200B amplifier (Molecular Devices, LLC). Current records were filtered at 5 or 10 kHz and sampled at 25–50 kHz. Series resistance (3 to 12 megaohms) was compensated by 95%. Recordings were performed at a range of holding potentials from −100 mV to 100 mV to study polyamine block. Data was acquired using pClamp9 software (Molecular Devices, LLC). All experiments were performed at room temperature. All chemicals were purchased from Sigma-Aldrich, unless otherwise indicated. External solution contained (in mM): 150 NaCl, 5 HEPES, 0.1 CaCl2, 0.1 MgCl, and […], pH 7.3–7.4. […] The osmotic pressure of all solutions was adjusted to 295 to 300 mOsm with sucrose. […] Stocks were thawed on the day of the experiment and used to prepared agonist-containing external solutions. Raw data for all electrophysiology experiments are provided in Supplementary Data 3. Current-voltage (I-V) relationships were fit using Origin 7 (OriginLab) using a ninth order polynomial function to estimate the reversal potential (Vrev).
(§3) Agonist-evoked membrane conductance (G) was calculated using the following equation: G=I/(V−Vrev)
(§4) Conductance-voltage (G-V) relationships were fit using Origin 7 (OriginLab) with the single permeant blocker model as done previously[46]: G=Gmax/1+[Spm]/Kd Where Gmax is the maximal conductance, [Spm] is the internal Spm concentration, and Kd is the dissociation constant.
(§5) Kd is defined as: Kd=koff+kperm/kon=sumofexitrates/bindingrate
(§6) And redefined as: Kd=g*exp(V/h)+L*exp(V/k) Where h and k are voltage dependencies of g and L, respectively, and at 0 mV: g=koff/konandL=kperm/kon

GluA2(Q) wt = biological target: T2, GluA2(Q) wt (Homo sapiens, UniProt P42262); experiment: as above; type: biochemical; settings: for Normalized conductance (Gnorm) GluA2 wild type / Normalized current (Inorm) GluA2 wild type: single recordings and AVG
T2 construct: host or cells: HEK-293T/17
Experimental: as §1, §2, §3, §4, §5, §6

T2 sequence (P42262 25-883): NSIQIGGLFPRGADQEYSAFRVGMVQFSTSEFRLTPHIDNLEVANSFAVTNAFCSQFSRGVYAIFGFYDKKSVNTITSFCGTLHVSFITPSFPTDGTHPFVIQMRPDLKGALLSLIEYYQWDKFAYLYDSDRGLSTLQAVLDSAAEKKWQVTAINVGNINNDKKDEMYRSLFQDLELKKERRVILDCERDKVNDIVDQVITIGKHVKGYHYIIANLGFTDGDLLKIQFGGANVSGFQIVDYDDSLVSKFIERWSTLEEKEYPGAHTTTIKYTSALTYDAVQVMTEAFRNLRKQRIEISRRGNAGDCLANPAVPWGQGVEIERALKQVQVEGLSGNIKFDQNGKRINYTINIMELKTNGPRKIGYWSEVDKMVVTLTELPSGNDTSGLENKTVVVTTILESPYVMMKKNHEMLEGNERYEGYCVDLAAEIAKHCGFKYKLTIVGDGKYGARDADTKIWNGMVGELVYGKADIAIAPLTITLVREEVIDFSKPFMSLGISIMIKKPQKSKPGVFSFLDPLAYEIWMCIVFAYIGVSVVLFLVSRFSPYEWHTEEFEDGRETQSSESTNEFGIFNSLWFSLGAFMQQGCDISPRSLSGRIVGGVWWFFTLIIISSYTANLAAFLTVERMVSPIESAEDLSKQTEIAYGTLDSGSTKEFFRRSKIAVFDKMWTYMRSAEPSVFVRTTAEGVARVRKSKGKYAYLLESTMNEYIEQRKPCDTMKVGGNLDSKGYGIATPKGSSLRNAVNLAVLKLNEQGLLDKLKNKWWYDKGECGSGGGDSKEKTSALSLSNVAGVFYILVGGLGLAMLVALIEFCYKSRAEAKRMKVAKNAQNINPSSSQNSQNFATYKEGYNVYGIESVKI
T1 sequence (P42262 25-883): as above
T1 sequence (Q9Y698 whole entry partner): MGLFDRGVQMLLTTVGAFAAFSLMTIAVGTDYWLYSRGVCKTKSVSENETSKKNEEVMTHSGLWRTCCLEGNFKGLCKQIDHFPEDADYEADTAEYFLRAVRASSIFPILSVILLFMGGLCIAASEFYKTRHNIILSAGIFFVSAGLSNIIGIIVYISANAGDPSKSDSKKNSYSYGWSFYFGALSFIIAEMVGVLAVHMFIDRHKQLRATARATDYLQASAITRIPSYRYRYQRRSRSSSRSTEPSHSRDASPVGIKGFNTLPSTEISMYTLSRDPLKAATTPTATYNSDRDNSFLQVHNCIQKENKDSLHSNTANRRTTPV

NCCCNCCCCNCCCN [spermine]
Normalized conductance (Gnorm) GluA2 wild type + γ2 (GluA2(Q) wt + γ2; 60 mV): 0.78 and 0.91 and 0.73 and 0.84 and 0.90 and 0.83
Normalized current (Inorm) GluA2 wild type + γ2 (GluA2(Q) wt + γ2; 60 mV): 0.39 and 0.50 and 0.46 and 0.45
Normalized conductance (Gnorm) GluA2 wild type + γ2 (GluA2(Q) wt + γ2; 70 mV): 0.82 and 0.96 and 0.81 and 0.89 and 0.95
Normalized current (Inorm) GluA2 wild type + γ2 (GluA2(Q) wt + γ2; 70 mV): 0.49 and 0.62 and 0.51 and 0.57
Normalized conductance (Gnorm) GluA2 wild type + γ2 (GluA2(Q) wt + γ2; 80 mV): 0.83 and 1.04 and 0.88 and 0.91 and 0.99 and 0.93
Normalized current (Inorm) GluA2 wild type + γ2 (GluA2(Q) wt + γ2; 80 mV): 0.57 and 0.78 and 0.64 and 0.67 and 0.75 and 0.68
Normalized conductance (Gnorm) GluA2 wild type + γ2 (GluA2(Q) wt + γ2; 90 mV): 0.86 and 0.93 and 1.02 and 0.94
Normalized current (Inorm) GluA2 wild type + γ2 (GluA2(Q) wt + γ2; 90 mV): 0.68 and 0.77 and 0.73 and 0.87 and 0.76
Normalized current (Inorm) GluA2 wild type + γ2 (GluA2(Q) wt + γ2; 100 mV): 0.71 and 0.89 and 0.76 and 1.01 and 0.84
Normalized conductance (Gnorm) GluA2 wild type + γ2 (GluA2(Q) wt + γ2; -10 mV): 0.69 and 0.62 and 0.75
Normalized current (Inorm) GluA2 wild type + γ2 (GluA2(Q) wt + γ2; -10 mV): -0.0852
Normalized conductance (Gnorm) GluA2 wild type + γ2 (GluA2(Q) wt + γ2; -20 mV): 0.78 and 0.82 and 0.74 and 0.85 and 0.80
Normalized conductance (Gnorm) GluA2 wild type + γ2 (GluA2(Q) wt + γ2; -30 mV): 0.84 and 0.88 and 0.83 and 0.85 and 0.92 and 0.86
Normalized conductance (Gnorm) GluA2 wild type + γ2 (GluA2(Q) wt + γ2; -40 mV): 0.90 and 0.92 and 0.89 and 0.96 and 0.91
Normalized conductance (Gnorm) GluA2 wild type + γ2 (GluA2(Q) wt + γ2; -50 mV): 0.96 and 0.94 and 0.92 and 0.93 and 0.98 and 0.95
Normalized conductance (Gnorm) GluA2 wild type + γ2 (GluA2(Q) wt + γ2; -60 mV): 0.99 and 0.97 and 0.98
Normalized conductance (Gnorm) GluA2 wild type + γ2 (GluA2(Q) wt + γ2; -70 mV): 1.01 and 0.98 and 0.99 and 0.97 and 0.96
Normalized conductance (Gnorm) GluA2 wild type + γ2 (GluA2(Q) wt + γ2; -80 mV): 1.01 and 0.98 and 1.00 and 0.99
Normalized conductance (Gnorm) GluA2 wild type + γ2 (GluA2(Q) wt + γ2; -90 mV): 1.00 and 0.99 and 0.98
Normalized conductance (Gnorm) GluA2 wild type + γ2 (GluA2(Q) wt + γ2; -100 mV): 1.02 and 1.00 and 0.95
Normalized current (Inorm) GluA2 wild type + γ2 (GluA2(Q) wt + γ2; -100 mV): -1.00
h, voltage dependency of block onset (GluA2(Q) wt + γ2; GluA2(Q) wt + γ2): −16.7 ± 1.9 mV
k, voltage dependency of block relief (GluA2(Q) wt + γ2; GluA2(Q) wt + γ2): 18.2 ± 3.0 mV
Kd (GluA2(Q) wt + γ2; GluA2(Q) wt + γ2, 30 µM internal Spm, 10 mM glutamate, read-out: Kd(0mV)): 38.4 ± 11.9 µM
h (GluA2(Q) wt + γ2; fit of Gnorm vs voltage, GluA2 wild type + γ2, single recordings): -13.23
Normalized conductance (Gnorm) GluA2 wild type (GluA2(Q) wt; 10 mV): 0.13 and 0.07 and 0.09 and 0.12 and 0.14 and 0.11
Normalized current (Inorm) GluA2 wild type (GluA2(Q) wt; 30 mV): 0.0172
Normalized current (Inorm) GluA2 wild type (GluA2(Q) wt; 70 mV): 0.19 and 0.25 and 0.20 and 0.28 and 0.32 and 0.36 and 0.27
Normalized conductance (Gnorm) GluA2 wild type (GluA2(Q) wt; 80 mV): 0.39 and 0.55 and 0.61 and 0.72 and 0.70 and 0.59
Normalized current (Inorm) GluA2 wild type (GluA2(Q) wt; 80 mV): 0.31 and 0.42 and 0.39 and 0.43 and 0.54 and 0.52 and 0.44
Normalized conductance (Gnorm) GluA2 wild type (GluA2(Q) wt; 90 mV): 0.49 and 0.69 and 0.70 and 0.77 and 0.89 and 0.81 and 0.72
Normalized current (Inorm) GluA2 wild type (GluA2(Q) wt; 90 mV): 0.44 and 0.59 and 0.56 and 0.62 and 0.76 and 0.68 and 0.61
Normalized conductance (Gnorm) GluA2 wild type (GluA2(Q) wt; 100 mV): 0.66 and 0.80 and 0.82 and 0.89 and 0.94
Normalized current (Inorm) GluA2 wild type (GluA2(Q) wt; 100 mV): 0.66 and 0.77 and 0.74 and 0.80 and 0.89
Normalized current (Inorm) GluA2 wild type (GluA2(Q) wt; -10 mV): -0.0326
Normalized current (Inorm) GluA2 wild type (GluA2(Q) wt; -20 mV): -0.0532
Normalized conductance (Gnorm) GluA2 wild type (GluA2(Q) wt; -40 mV): 0.53 and 0.50 and 0.49 and 0.66 and 0.63 and 0.73 and 0.59
Normalized conductance (Gnorm) GluA2 wild type (GluA2(Q) wt; -50 mV): 0.65 and 0.63 and 0.62 and 0.80 and 0.70 and 0.82
Normalized conductance (Gnorm) GluA2 wild type (GluA2(Q) wt; -60 mV): 0.75 and 0.73 and 0.72 and 0.89 and 0.80 and 0.79
Normalized conductance (Gnorm) GluA2 wild type (GluA2(Q) wt; -70 mV): 0.83 and 0.76 and 0.82 and 0.93 and 0.85 and 0.92
Normalized conductance (Gnorm) GluA2 wild type (GluA2(Q) wt; -80 mV): 0.88 and 0.91 and 0.95 and 0.89
Normalized conductance (Gnorm) GluA2 wild type (GluA2(Q) wt; -90 mV): 0.90 and 0.93 and 0.98 and 0.99 and 0.95
Normalized conductance (Gnorm) GluA2 wild type (GluA2(Q) wt; -100 mV): 0.96 and 0.99 and 0.97 and 1.03 and 1.00
Normalized current (Inorm) GluA2 wild type (GluA2(Q) wt; -100 mV): -1.00
h, voltage dependency of block onset (GluA2(Q) wt; GluA2(Q) wt): −18.5 ± 0.7 mV
k, voltage dependency of block relief (GluA2(Q) wt; GluA2(Q) wt): 14.3 ± 0.6 mV
Kd (GluA2(Q) wt; GluA2(Q) wt, 30 µM internal Spm, 10 mM glutamate, read-out: Kd(0mV)): 5.4 ± 2.6 µM
k (GluA2(Q) wt; fit of Gnorm vs voltage, GluA2 wild type, single recordings): 16.05 and 14.65 and 13.61 and 14.56 and 11.91 and 14.81
